The results in this text go back to ChEMBL document CHEMBL2074131, “Inhibition of P-glycoprotein function by XR9576 in a solid tumour model can restore anticancer drug efficacy” (Eur J Cancer, 2004).

Molecules are shown by their SMILES.

The data set concerns the target ATP-dependent translocase ABCB1 (Homo sapiens, UniProt P08183). The experiment in a line: TP_TRANSPORTER: drug resistance (vinblastine) in NCI/ADRRes cells. The class given is functional, cell-based.

Sequence of ATP-dependent translocase ABCB1 (P08183 whole entry): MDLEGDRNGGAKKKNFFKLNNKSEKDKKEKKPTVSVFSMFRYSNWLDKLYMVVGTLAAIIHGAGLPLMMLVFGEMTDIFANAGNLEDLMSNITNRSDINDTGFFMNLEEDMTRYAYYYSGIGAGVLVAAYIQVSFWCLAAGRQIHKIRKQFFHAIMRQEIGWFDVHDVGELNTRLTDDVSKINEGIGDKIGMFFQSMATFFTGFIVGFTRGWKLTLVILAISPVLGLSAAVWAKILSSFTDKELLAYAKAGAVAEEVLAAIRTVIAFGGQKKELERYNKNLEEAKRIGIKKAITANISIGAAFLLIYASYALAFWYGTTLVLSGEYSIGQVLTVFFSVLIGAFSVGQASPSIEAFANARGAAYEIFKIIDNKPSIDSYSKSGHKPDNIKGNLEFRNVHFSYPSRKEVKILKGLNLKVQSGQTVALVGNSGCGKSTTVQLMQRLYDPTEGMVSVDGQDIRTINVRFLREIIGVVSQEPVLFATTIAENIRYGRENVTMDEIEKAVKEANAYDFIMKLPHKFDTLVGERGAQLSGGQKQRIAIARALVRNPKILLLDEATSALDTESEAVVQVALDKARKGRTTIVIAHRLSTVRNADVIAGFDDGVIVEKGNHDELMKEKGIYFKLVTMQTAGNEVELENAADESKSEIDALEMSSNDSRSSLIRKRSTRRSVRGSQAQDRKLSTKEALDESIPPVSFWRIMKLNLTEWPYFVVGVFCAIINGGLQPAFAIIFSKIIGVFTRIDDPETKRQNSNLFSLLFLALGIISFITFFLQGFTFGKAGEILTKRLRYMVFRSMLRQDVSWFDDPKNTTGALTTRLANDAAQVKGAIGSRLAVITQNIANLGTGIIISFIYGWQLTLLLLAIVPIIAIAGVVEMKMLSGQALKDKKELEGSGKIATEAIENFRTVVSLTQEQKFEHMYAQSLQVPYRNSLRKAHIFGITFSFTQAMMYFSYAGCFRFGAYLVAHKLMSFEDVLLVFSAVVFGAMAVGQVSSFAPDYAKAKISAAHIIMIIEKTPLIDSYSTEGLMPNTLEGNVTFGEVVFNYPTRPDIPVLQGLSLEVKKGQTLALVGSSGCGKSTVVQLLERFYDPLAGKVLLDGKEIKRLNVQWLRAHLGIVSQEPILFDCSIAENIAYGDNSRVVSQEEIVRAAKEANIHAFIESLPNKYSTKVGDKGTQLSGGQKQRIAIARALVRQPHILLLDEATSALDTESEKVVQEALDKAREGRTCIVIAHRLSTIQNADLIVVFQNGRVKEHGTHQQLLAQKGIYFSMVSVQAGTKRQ

For `COc1cc2c(cc1OC)CN(CCc1ccc(NC(=O)c3cc(OC)c(OC)cc3NC(=O)c3cnc4ccccc4c3)cc1)CC2` [TARIQUIDAR], the Activity entry was “inhibitor [+]”.
